Measured values published in patent US12037386B2, “Antibodies to PfGARP kill Plasmodium falciparum malaria parasites and protect against infection and severe disease” (priority 2020, dated 2024).
Where two headings read alike, the source gives them in different places.

What was measured:
[1] = tested on: food vacuole of parasites; conditions: cited from earlier work
[2] = tested on: Ring stage 3D7 parasites; assay: Food vacuole integrity, Fluo-4-AM confocal microscopy; format: cell-based, Plasmodium falciparum; conditions: 1 μM, positive control, 24 hours
Experimental: FIG. 17 are images showing that anti-PfGARP disrupts food vacuole integrity. Ring stage 3D7 parasites were treated with pre-immune sera (1:10), 1 μM chloroquine, or anti-PfGARP antisera (1:10) for 24 hours, followed by staining with DAPI and Fluo-4-AM. […] Data are representative of 2 independent experiments.
The impact of anti-PfGARP antibodies on food vacuole integrity by confocal microscopy was evaluated using the calcium binding dye Fluo-4-AM, which preferentially labels the food vacuole and has been used to distinguish the food vacuole from the endoplasmic reticulum (Zhang, M. et al. Science 360 (2018)).
The impact of anti-PfGARP antibodies on food vacuole integrity was further evaluated by confocal microscopy using the calcium binding dye Fluo-4-AM, which specifically labels the food vacuole. Ring stage 3D7 parasites were incubated with culture media (negative control), 1 μM chloroquine (positive control), or anti-PfGARP prepared by rPfGARP-A immunization for 24 hours. Parasites were washed with 1×PBS three times and incubated with Fluo-4-AM (a cell-permeable calcium-sensing dye that fluoresces green when bound with Ca^+2) at a final concentration of 2 μM and DAPI for 30 minutes, at 37° C. The parasites were washed with 1×PBS and observed under a fluorescent microscope.

CCN(CC)CCCC(C)Nc1ccnc2cc(Cl)ccc12 (stereo not drawn) [chloroquine]
effect on food vacuole ([1]; high concentrations (3 μM)): disrupts the food vacuole membrane | effect on food vacuole ([1]; lower concentrations (68 nM)): marked food vacuole swelling, but no extravasation of hemozoin into the cytoplasm | food vacuole integrity (Fluo-4-AM redistribution) [2]: disrupts the food vacuole leading to dispersion of the dye into the parasite's cytosol
